Measured values: ChEMBL document CHEMBL1133531, “Carbonic anhydrase inhibitors: perfluoroalkyl/aryl-substituted derivatives of aromatic/heterocyclic sulfonamides as topical intraocular pressure-lowering agents with prolonged duration of action” (J Med Chem, 2000)
Converted amounts (≈) assume the structure as drawn.

Key:
Carbonic anhydrase 4 = target: T1, Carbonic anhydrase 4 (Bos taurus, UniProt Q95323)
T1 sequence (Q95323 whole entry): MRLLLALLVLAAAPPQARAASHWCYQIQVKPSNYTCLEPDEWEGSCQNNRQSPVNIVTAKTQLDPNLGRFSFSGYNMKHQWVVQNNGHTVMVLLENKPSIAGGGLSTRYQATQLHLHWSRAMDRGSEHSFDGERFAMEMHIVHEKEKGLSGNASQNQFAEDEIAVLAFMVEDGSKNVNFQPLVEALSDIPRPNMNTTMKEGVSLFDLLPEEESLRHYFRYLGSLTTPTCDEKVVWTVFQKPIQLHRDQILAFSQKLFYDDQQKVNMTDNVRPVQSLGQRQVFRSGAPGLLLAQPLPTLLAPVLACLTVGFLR
Description: Inhibition of bovine carbonic anhydrase IV (CA4) from bovine lung microsomes

Carbonic anhydrase 1 = Carbonic anhydrase 1 (Homo sapiens, UniProt P00915)
Description: Inhibition of human recombinant carbonic anhydrase I (CA1)

Oryctolagus cuniculus [1] = species: Oryctolagus cuniculus
Description: Tested for in vivo IOP-lowering of normotensive albino rabbits after topical administration at the specified interval (30 min) at pH 7

Oryctolagus cuniculus [2] = species: Oryctolagus cuniculus; remark: listed apart in the source
Description: Tested for in vivo IOP-lowering of normotensive albino rabbits after topical administration at the specified interval (90 min) at pH 7

Oryctolagus cuniculus [3] = species: Oryctolagus cuniculus; remark: listed apart in the source
Description: Tested for in vivo IOP-lowering of normotensive albino rabbits after topical administration at the specified interval (60 min) at pH 7

physchem = conditions: pH 7.4 buffer
Description: Tested for solubility in pH 7.4 buffer, at 25 Degree C

Oryctolagus cuniculus [4] = species: Oryctolagus cuniculus; remark: listed apart in the source
Description: Tested for in vivo IOP-lowering of normotensive albino rabbits after topical administration at the specified interval (90 min) at pH 6.5

Oryctolagus cuniculus [5] = species: Oryctolagus cuniculus; remark: listed apart in the source
Description: In vitro transcorneal accession rate in rabbit corneal denuded epithelium

Oryctolagus cuniculus [6] = species: Oryctolagus cuniculus; remark: listed apart in the source
Description: Tested for in vivo IOP-lowering of normotensive albino rabbits after topical administration at the specified interval (30 min) at pH 6.5

[7] = Partition coefficient (logD) (chloroform-buffer); format: physicochemical
Oryctolagus cuniculus [8] = species: Oryctolagus cuniculus; remark: listed apart in the source
Description: In vitro transcorneal accession rate in rabbit corneal intact epithelium

Oryctolagus cuniculus [9] = species: Oryctolagus cuniculus; remark: listed apart in the source
Description: Tested for in vivo IOP-lowering of normotensive albino rabbits after topical administration at the specified interval (60 min) at pH 6.5

[10] = octanol/water
Description: Partition coefficient (logD) (chloroform/buffer)

Carbonic anhydrase 1, sequence (P00915 whole entry): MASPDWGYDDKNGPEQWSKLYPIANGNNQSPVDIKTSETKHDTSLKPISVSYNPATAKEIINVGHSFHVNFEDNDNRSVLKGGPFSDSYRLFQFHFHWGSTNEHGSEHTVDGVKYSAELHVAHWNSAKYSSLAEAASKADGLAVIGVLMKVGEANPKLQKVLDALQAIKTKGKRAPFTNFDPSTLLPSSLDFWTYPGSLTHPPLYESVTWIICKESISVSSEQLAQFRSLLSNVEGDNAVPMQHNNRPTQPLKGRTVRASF

SMILES | Ki (Carbonic anhydrase 4) [nM] | Ki (Carbonic anhydrase 1) [nM] | further results
NS(=O)(=O)c1ccc(COC(=O)C(F)(F)C(F)(F)C(F)(F)C(F)(F)C(F)(F)C(F)(F)C(F)(F)C(F)(F)F)cc1 | 11000 | 15000 | 
NS(=O)(=O)c1nc2ccc(NS(=O)(=O)c3c(F)c(F)c(F)c(F)c3F)cc2s1 | 5 | 41 | Delta IOP (Oryctolagus cuniculus [1]): 3 mmHg; Delta IOP (Oryctolagus cuniculus [2]): 6.6 mmHg; Delta IOP (Oryctolagus cuniculus [3]): 8 mmHg
NS(=O)(=O)c1ccccc1NS(=O)(=O)C(F)(F)C(F)(F)C(F)(F)C(F)(F)F | 900 | 22000 | 
NS(=O)(=O)c1ccccc1NS(=O)(=O)c1c(F)c(F)c(F)c(F)c1F | 680 | 1390 | 
NS(=O)(=O)c1ccc(NS(=O)(=O)C(F)(F)F)c(F)c1 | 29000 | 100000 | 
NS(=O)(=O)c1ccc(NS(=O)(=O)C(F)(F)C(F)(F)C(F)(F)C(F)(F)C(F)(F)C(F)(F)C(F)(F)C(F)(F)F)c(Br)c1 | 12500 | 2550 | 
NS(=O)(=O)c1ccc(CCOS(=O)(=O)C(F)(F)F)cc1 | 45000 | 80000 | 
NS(=O)(=O)c1cccc(NS(=O)(=O)C(F)(F)F)c1 | 95300 | 188000 | 
Cn1nc(S(N)(=O)=O)sc1=NS(=O)(=O)C(F)(F)F | 32 | 2000 | solubility (physchem): 69 mM (≈ 22.5 mg/mL); Delta IOP (Oryctolagus cuniculus [4]): 4.9 mmHg; Kin (Oryctolagus cuniculus [5]): 4800 h⁻¹; Delta IOP (Oryctolagus cuniculus [6]): 3.2 mmHg; logD [7]: 1.012; Kin (Oryctolagus cuniculus [8]): 3100 h⁻¹; Delta IOP (Oryctolagus cuniculus [9]): 7.3 mmHg
NS(=O)(=O)c1ccccc1NS(=O)(=O)C(F)(F)F | 97000 | 175000 | 
NS(=O)(=O)c1ccc(NS(=O)(=O)C(F)(F)F)cc1 | 64600 | 166000 | 
NS(=O)(=O)c1ccc(NS(=O)(=O)C(F)(F)C(F)(F)C(F)(F)C(F)(F)F)c(Cl)c1 | 880 | 10200 | 
NS(=O)(=O)c1ccc(CNS(=O)(=O)C(F)(F)C(F)(F)C(F)(F)C(F)(F)C(F)(F)C(F)(F)C(F)(F)C(F)(F)F)cc1 | 705 | 1000 | 
NS(=O)(=O)c1ccc(COS(=O)(=O)C(F)(F)F)cc1 | 24100 | 135000 | 
NS(=O)(=O)c1ccc(NC(=O)C(F)(F)C(F)(F)C(F)(F)C(F)(F)C(F)(F)C(F)(F)C(F)(F)C(F)(F)F)cc1 | 850 | 1400 | 
NS(=O)(=O)c1ccc(NS(=O)(=O)C(F)(F)C(F)(F)C(F)(F)C(F)(F)C(F)(F)C(F)(F)C(F)(F)C(F)(F)F)c(I)c1 | 15000 | 3400 | 
NS(=O)(=O)c1ccc(NS(=O)(=O)C(F)(F)F)c(I)c1 | 49000 | 210000 | 
NS(=O)(=O)c1ccc(NNC(=O)c2c(F)c(F)c(F)c(F)c2F)cc1 | 980 | 1500 | 
NS(=O)(=O)c1nnc(NS(=O)(=O)C(F)(F)C(F)(F)C(F)(F)C(F)(F)F)s1 | 9 | 360 | Delta IOP (Oryctolagus cuniculus [1]): 2.8 mmHg; solubility (physchem): 50 mM (≈ 23.1 mg/mL); Delta IOP (Oryctolagus cuniculus [2]): 5.6 mmHg; Kin (Oryctolagus cuniculus [5]): 7000 h⁻¹; Delta IOP (Oryctolagus cuniculus [3]): 8.5 mmHg; logD [7]: 1.525; Kin (Oryctolagus cuniculus [8]): 4300 h⁻¹
NS(=O)(=O)c1nnc(NC(=O)c2c(F)c(F)c(F)c(F)c2F)s1 | 10 | 250 | Delta IOP (Oryctolagus cuniculus [1]): 2.2 mmHg; solubility (physchem): 43 mM (≈ 16.1 mg/mL); Delta IOP (Oryctolagus cuniculus [2]): 6.5 mmHg; Kin (Oryctolagus cuniculus [5]): 10100 h⁻¹; Delta IOP (Oryctolagus cuniculus [3]): 7.3 mmHg; logD [7]: 2.245; Kin (Oryctolagus cuniculus [8]): 4800 h⁻¹
NS(=O)(=O)c1ccc(COS(=O)(=O)C(F)(F)C(F)(F)C(F)(F)C(F)(F)F)cc1 | 10600 | 24500 | 
NS(=O)(=O)c1ccc(CCOS(=O)(=O)C(F)(F)C(F)(F)C(F)(F)C(F)(F)F)cc1 | 9200 | 20900 | 
CC(=O)/N=c1/sc(S(N)(=O)=O)nn1C [METHAZOLAMIDE] |  |  | Kin (Oryctolagus cuniculus [5]): 13000 h⁻¹; logD [10]: 0.06; Kin (Oryctolagus cuniculus [8]): 1900 h⁻¹

More lines, in order of falling Ki (Carbonic anhydrase 4), values ahead:

Ki (Carbonic anhydrase 4) [nM] | Ki (Carbonic anhydrase 1) [nM] | SMILES | further results
600 | 15000 | NS(=O)(=O)c1ccc(NNS(=O)(=O)C(F)(F)C(F)(F)C(F)(F)C(F)(F)F)cc1 | 
540 | 1450 | NS(=O)(=O)c1ccc(NS(=O)(=O)c2c(F)c(F)c(F)c(F)c2F)c(Cl)c1 | 
500 | 1100 | NS(=O)(=O)c1cccc(NS(=O)(=O)c2c(F)c(F)c(F)c(F)c2F)c1 | 
500 | 1450 | NS(=O)(=O)c1ccc(NS(=O)(=O)C(F)(F)C(F)(F)C(F)(F)C(F)(F)C(F)(F)C(F)(F)C(F)(F)C(F)(F)F)c(F)c1 | 
470 | 965 | NS(=O)(=O)c1ccc(CCNS(=O)(=O)C(F)(F)C(F)(F)C(F)(F)C(F)(F)C(F)(F)C(F)(F)C(F)(F)C(F)(F)F)cc1 | 
410 | 890 | NS(=O)(=O)c1ccc(NS(=O)(=O)c2c(F)c(F)c(F)c(F)c2F)cc1 | 
400 | 1250 | NS(=O)(=O)c1ccc(CCOC(=O)c2c(F)c(F)c(F)c(F)c2F)cc1 | 
185 | 760 | NS(=O)(=O)c1ccc(NC(=O)c2c(F)c(F)c(F)c(F)c2F)c(F)c1 | 
160 | 5100 | NS(=O)(=O)c1cc(S(N)(=O)=O)c(NS(=O)(=O)C(F)(F)C(F)(F)C(F)(F)C(F)(F)F)c(Cl)c1Cl | 
100 | 290 | NS(=O)(=O)c1ccc(COS(=O)(=O)c2c(F)c(F)c(F)c(F)c2F)cc1 | 
62 | 7700 | NS(=O)(=O)c1ccc(Nc2ccnc(NC(=O)c3c(F)c(F)c(F)c(F)c3F)n2)cc1 | 
43 | 400 | NS(=O)(=O)c1cc(S(N)(=O)=O)c(NS(=O)(=O)C(F)(F)C(F)(F)C(F)(F)C(F)(F)F)cc1Cl | 
40 | 3000 | NS(=O)(=O)c1nnc(NC(=O)CCNS(=O)(=O)C(F)(F)F)s1 | 
34 | 4500 | NS(=O)(=O)c1ccc(Nc2ccnc(NS(=O)(=O)C(F)(F)C(F)(F)C(F)(F)C(F)(F)C(F)(F)C(F)(F)C(F)(F)C(F)(F)F)n2)cc1 | 
33 | 3600 | NS(=O)(=O)c1cccc(NS(=O)(=O)c2ccc(NS(=O)(=O)C(F)(F)C(F)(F)C(F)(F)C(F)(F)C(F)(F)C(F)(F)C(F)(F)C(F)(F)F)cc2)c1 | 
33 | 1000 | Cn1nc(S(N)(=O)=O)s/c1=N/S(=O)(=O)c1ccc(NS(=O)(=O)C(F)(F)F)cc1 | 

Ki (Carbonic anhydrase 4) [nM] | Ki (Carbonic anhydrase 1) [nM] | SMILES | further results
24 | 1000 | Cn1nc(S(N)(=O)=O)s/c1=N/S(=O)(=O)c1ccc(NS(=O)(=O)C(F)(F)C(F)(F)C(F)(F)C(F)(F)F)cc1 | 
24 | 325 | NS(=O)(=O)c1ccc(Nc2ccnc(NS(=O)(=O)c3c(F)c(F)c(F)c(F)c3F)n2)cc1 | 
21 | 800 | NS(=O)(=O)c1nnc(NS(=O)(=O)c2ccc(NS(=O)(=O)C(F)(F)C(F)(F)C(F)(F)C(F)(F)C(F)(F)C(F)(F)C(F)(F)C(F)(F)F)cc2)s1 | Kin (Oryctolagus cuniculus [5]): 7.5 h⁻¹; logD [7]: 1.689; Kin (Oryctolagus cuniculus [8]): 4.1 h⁻¹
16 | 150 | NS(=O)(=O)c1cccc(NS(=O)(=O)c2ccc(NS(=O)(=O)c3c(F)c(F)c(F)c(F)c3F)cc2)c1 | 
13 | 600 | NS(=O)(=O)c1nnc(NS(=O)(=O)c2ccc(NC(=O)C(F)(F)C(F)(F)C(F)(F)C(F)(F)C(F)(F)C(F)(F)C(F)(F)C(F)(F)F)cc2)s1 | Kin (Oryctolagus cuniculus [5]): 8 h⁻¹; logD [7]: 1.436; Kin (Oryctolagus cuniculus [8]): 3.2 h⁻¹
12 | 400 | NS(=O)(=O)c1nnc(NS(=O)(=O)C(F)(F)C(F)(F)C(F)(F)C(F)(F)C(F)(F)C(F)(F)C(F)(F)C(F)(F)F)s1 | 
11 | 65 | NS(=O)(=O)c1nc2ccc(OCCOC(=O)c3c(F)c(F)c(F)c(F)c3F)cc2s1 | 
10 | 55 | NS(=O)(=O)c1nc2ccc(OS(=O)(=O)C(F)(F)F)cc2s1 | 
9 | 21 | Cn1nc(S(N)(=O)=O)s/c1=N/S(=O)(=O)c1ccc(NS(=O)(=O)c2c(F)c(F)c(F)c(F)c2F)cc1 | 
9 | 200 | NS(=O)(=O)c1nnc(NC(=O)CCNS(=O)(=O)c2c(F)c(F)c(F)c(F)c2F)s1 | Delta IOP (Oryctolagus cuniculus [1]): 4 mmHg; Delta IOP (Oryctolagus cuniculus [2]): 6.1 mmHg; Delta IOP (Oryctolagus cuniculus [3]): 7.5 mmHg
9 | 45 | NS(=O)(=O)c1nc2ccc(NC(=O)C(F)(F)C(F)(F)C(F)(F)C(F)(F)C(F)(F)C(F)(F)C(F)(F)C(F)(F)F)cc2s1 | 
8 | 24 | NS(=O)(=O)c1nnc(NS(=O)(=O)c2ccc(NS(=O)(=O)c3c(F)c(F)c(F)c(F)c3F)cc2)s1 | 
7 | 18 | NS(=O)(=O)c1nc2ccc(OCCOS(=O)(=O)c3c(F)c(F)c(F)c(F)c3F)cc2s1 | 
7 | 29 | NS(=O)(=O)c1nc2ccc(OS(=O)(=O)C(F)(F)C(F)(F)C(F)(F)C(F)(F)F)cc2s1 | 
5 | 17 | NS(=O)(=O)c1nc2ccc(OCCOS(=O)(=O)C(F)(F)C(F)(F)C(F)(F)C(F)(F)C(F)(F)C(F)(F)C(F)(F)C(F)(F)F)cc2s1 | 
